Counter-ions that a name gives are not always drawn.
target: TAFIa (Homo sapiens (Human), UniProt Q96IY4); assay: Determination of TAFIa enzyme inhibitory activity (FAAK substrate degradation); format: biochemical; settings: TAFI activated with human thrombin / rabbit lung thrombomodulin; substrate FAAK, absorbance at 330 nm; di-p-toluenesulfonate; read-out: TAFIa IC50
Description: Determination of TAFIa Enzyme Inhibitory Activity
HEPES buffered saline (20 mM HEPES, 150 mM NaCl, pH 7.4; hereinafter, referred to as HBS) was used in the preparation of a reaction solution. To 12 μL of a 250 μg/mL TAFI solution, 30 μL of an HBS solution containing 4 U/mL human thrombin, 12 U/mL rabbit lung thrombomodulin, and 12 mM CaCl2 was added, and the mixture was gently stirred. Then, TAFI was activated at room temperature. Ten minutes later, thrombin was neutralized by the addition of 10 μL of 100 μM PPACK (thrombin inhibitor) to terminate the activation of TAFI. The formed TAFIa was stored in ice and diluted immediately before use in determination with 2050 μL of an HBS solution containing BSA (bovine serum albumin) adjusted to 0.1% in terms of the final concentration.
(2) Determination of TAFIa Inhibitory Activity
A test substance was dissolved in HBS to prepare a 10-fold dilution series of evaluation concentrations. 80 μL of the TAFIa solution and 10 μL of the test substance were added to each well of a 96-well plate and mixed by shaking for 10 minutes. 10 μL of furylacryloyl-alanyl-lysine (FAAK) adjusted to 5 mg/mL was added to each well, and the change in the absorbance of this mixed solution at 330 nm was read for 30 minutes to determine the degradation rate of the substrate.
(3) Calculation of Inhibitory Activity IC50
The degradation rate of the substrate in each well was applied to a standard curve prepared using the dilution series of the TAFIa solution to calculate TAFIa activity.

Chain of TAFIa (Q96IY4 115-423): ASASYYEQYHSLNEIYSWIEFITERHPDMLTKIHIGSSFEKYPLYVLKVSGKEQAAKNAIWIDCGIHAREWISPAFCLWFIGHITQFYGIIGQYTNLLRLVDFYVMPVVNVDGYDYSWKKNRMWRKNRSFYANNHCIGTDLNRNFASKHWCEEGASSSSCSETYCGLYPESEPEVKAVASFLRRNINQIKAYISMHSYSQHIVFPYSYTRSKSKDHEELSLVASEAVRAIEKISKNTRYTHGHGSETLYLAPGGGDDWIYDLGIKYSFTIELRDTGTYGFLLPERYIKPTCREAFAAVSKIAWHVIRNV

| SMILES | IC50 [µM] |
| --- | --- |
| NCCC[C@H]1C[C@]1(C(=O)O)c1cn(-c2ccccc2)cn1 [Example 31, (1R,2S)-2-(3-Aminopropyl)-1-(1-phenyl-1H-imidazol-4-yl)cyclopropanecarboxylic acid di-p-toluenesulfonate] | 0.015 |

same assay, conditions: TAFI activated with human thrombin / rabbit lung thrombomodulin; substrate FAAK, absorbance at 330 nm; read-out: TAFIa IC50

| SMILES | IC50 [µM] |
| --- | --- |
| CC[C@@H](CN)C[C@H]1C[C@]1(C(=O)O)c1cn(-c2ccccc2)cn1 [Example 62, (1R,2S)-2-[(2R)-2-(Aminomethyl)butyl]-1-(1-phenyl-1H-imidazol-4-yl)cyclopropanecarboxylic acid] | 0.0079 |
| Cc1ccccc1-n1cnc([C@@]2(C(=O)O)C[C@@H]2CCCN)c1 (relative stereo) [Example 9, (1R*,2S*)-2-(3-Aminopropyl)-1-[1-(2-methylphenyl)-1H-imidazol-4-yl]cyclopropanecarboxylic acid] | > 0.3 |
| C[C@@H](CN)C[C@H]1C[C@]1(C(=O)O)c1cn(-c2ccccn2)cn1 [Example 54, (1R,2S)-2-[(2R)-3-Amino-2-methylpropyl]-1-(1-pyridin-2-yl-1H-imidazol-4-yl]cyclopropanecarboxylic acid] | 0.011 |
| CCCn1cnc([C@@]2(C(=O)O)C[C@@H]2CCCN)c1 (relative stereo) [Example 3, (1R*,2S*)-2-(3-Aminopropyl)-1-(1-propyl-1H-imidazol-4-yl)cyclopropanecarboxylic acid] | 0.097 |
| CCOC(=O)[C@]1(c2cn(-c3ccc(C)cc3)cn2)C[C@@H]1CCCN (relative stereo) [Example 26, Ethyl (1R*,2S*)-2-(3-aminopropyl)-1-[1-(4-methylphenyl)-1H-imidazol-4-yl]cyclopropanecarboxylate hydrochloride] | 10 |
| NCCC[C@H]1C[C@]1(C(=O)O)c1cn(-c2ccc(Oc3ccccc3)cc2)cn1 (relative stereo) [Example 16, (1R*,2S*)-2-(3-Aminopropyl)-1-[1-(4-phenoxyphenyl)-1H-imidazol-4-yl]cyclopropanecarboxylic acid] | 0.052 |
| C[C@H](CN)C[C@H]1C[C@]1(C(=O)O)c1cn(-c2ccccc2)cn1 [Example 51, (1R,2S)-2-[(2S)-3-Amino-2-methylpropyl]-1-(1-phenyl-1H-imidazol-4-yl)cyclopropanecarboxylic acid] | 0.035 |
| COc1ccc(-n2cnc([C@@]3(C(=O)O)C[C@@H]3CCCN)c2)cc1 (relative stereo) [Example 12, (1R*,2S*)-2-(3-Aminopropyl)-1-[1-(4-methoxyphenyl)-1H-imidazol-4-yl]cyclopropanecarboxylic acid] | 0.036 |
| NCCC[C@H]1C[C@]1(C(=O)O)c1cn(-c2ccccn2)cn1 [Example 48, (1R,2S)-2-(3-Aminopropyl)-1-(1-pyridin-2-yl-1H-imidazol-4-yl)cyclopropanecarboxylic acid] | 0.011 |
| NCCC[C@H]1C[C@]1(C(=O)O)c1cn(-c2ccccc2)cn1 [Example 30, (1R,2S)-2-(3-Aminopropyl)-1-(1-phenyl-1H-imidazol-4-yl)cyclopropanecarboxylic acid] | 0.013 |
| NCCC[C@H]1C[C@]1(C(=O)O)c1cn(-c2ncccn2)cn1 (relative stereo) [Example 39, (1R*,2S*)-2-(3-Aminopropyl)-1-(1-pyrimidin-2-yl-1H-imidazol-4-yl)cyclopropanecarboxylic acid] | 0.03 |
| NCCC[C@H]1C[C@]1(C(=O)O)c1cn(-c2cccc(Cl)c2)cn1 (relative stereo) [Example 19, (1R*,2S*)-2-(3-Aminopropyl)-1-[1-(3-chlorophenyl)-1H-imidazol-4-yl]cyclopropanecarboxylic acid] | 0.07 |
| NCCC[C@H]1C[C@]1(C(=O)O)c1cn(-c2ccc(Cl)cc2)cn1 (relative stereo) [Example 18, (1R*,2S*)-2-(3-Aminopropyl)-1-[1-(4-chlorophenyl)-1H-imidazol-4-yl]cyclopropanecarboxylic acid] | 0.025 |
| CCc1ccc(-n2cnc([C@@]3(C(=O)O)C[C@@H]3CCCN)c2)cc1 (relative stereo) [Example 11, (1R*,2S*)-2-(3-Aminopropyl)-1-[1-(4-ethylphenyl)-1H-imidazol-4-yl]cyclopropanecarboxylic acid] | 0.031 |
| NCCC[C@H]1C[C@]1(C(=O)O)c1cn(-c2ccc(C(F)(F)F)cc2)cn1 (relative stereo) [Example 13, (1R*,2S*)-2-(3-Aminopropyl)-1-{1-[4-(trifluoromethyl)phenyl]-1H-imidazol-4-yl}cyclopropanecarboxylic acid] | 0.14 |
| NCCC[C@H]1C[C@]1(C(=O)O)c1cn(-c2nccs2)cn1 (relative stereo) [Example 38, (1R*,2S*)-2-(3-Aminopropyl)-1-[1-(1,3-thiazol-2-yl)-1H-imidazol-4-yl]cyclopropanecarboxylic acid] | 0.058 |
| NCCC[C@@H]1C[C@@]1(C(=O)O)c1cn(-c2ccccc2)cn1 [Example 29, (1S,2R)-2-(3-Aminopropyl)-1-(1-phenyl-1H-imidazol-4-yl)cyclopropanecarboxylic acid] | > 10 |
| CC(CN)C[C@H]1C[C@]1(C(=O)O)c1cn(-c2ccccc2)cn1 (relative stereo) [Example 32, (1R*,2S*)-2-(3-Amino-2-methylpropyl)-1-(1-phenyl-1H-imidazol-4-yl)cyclopropanecarboxylic acid] | 0.035 |
| Cc1cccc(-n2cnc([C@@]3(C(=O)O)C[C@@H]3CCCN)c2)c1 (relative stereo) [Example 8, (1R*,2S*)-2-(3-Aminopropyl)-1-[1-(3-methylphenyl)-1H-imidazol-4-yl]cyclopropanecarboxylic acid] | 0.037 |
| NCCC[C@H]1C[C@]1(C(=O)O)c1cn(-c2cccc3ccccc23)cn1 (relative stereo) [Example 47, (1R*,2S*)-2-(3-Aminopropyl)-1-[1-(1-naphthyl)-1H-imidazol-4-yl]cyclopropanecarboxylic acid] | 0.054 |
| N#Cc1ccc(-n2cnc([C@@]3(C(=O)O)C[C@@H]3CCCN)c2)cc1 (relative stereo) [Example 40, (1R*,2S*)-2-(3-Aminopropyl)-1-[1-(4-cyanophenyl)-1H-imidazol-4-yl]cyclopropanecarboxylic acid] | 0.029 |
| C[C@@H](CN)C[C@H]1C[C@]1(C(=O)O)c1cn(-c2ccccc2)cn1 [Example 50, (1R,2S)-2-[(2R)-3-Amino-2-methylpropyl]-1-(1-phenyl-1H-imidazol-4-yl)cyclopropanecarboxylic acid] | 0.014 |
| C[C@H](CN)C[C@@H]1C[C@@]1(C(=O)O)c1cn(-c2ccccn2)cn1 [Example 57, (1S,2R)-2-[(2S)-3-Amino-2-methylpropyl]-1-(1-pyridin-2-yl-1H-imidazol-4-yl]cyclopropanecarboxylic acid] | 0.49 |
| NCCC[C@H]1C[C@]1(C(=O)O)c1cn(-c2ccc(F)cn2)cn1 (relative stereo) [Example 41, (1R*,2S*)-2-(3-Aminopropyl)-1-[1-(5-fluoropyridin-2-yl)-1H-imidazol-4-yl]cyclopropanecarboxylic acid] | 0.019 |
| NCCC[C@H]1C[C@]1(C(=O)O)c1cn(-c2ccncc2)cn1 (relative stereo) [Example 23, (1R*,2S*)-2-(3-Aminopropyl)-1-(1-pyridin-4-yl-1H-imidazol-4-yl)cyclopropanecarboxylic acid hydrochloride] | 0.17 |
| NCCC[C@H]1C[C@]1(C(=O)O)c1cn(-c2ccc(F)cc2)cn1 (relative stereo) [Example 15, (1R*,2S*)-2-(3-Aminopropyl)-1-[1-(4-fluorophenyl)-1H-imidazol-4-yl]cyclopropanecarboxylic acid] | 0.021 |
| NCCC[C@H]1C[C@]1(C(=O)O)c1cn(-c2ccccc2Cl)cn1 (relative stereo) [Example 20, (1R*,2S*)-2-(3-Aminopropyl)-1-[1-(2-chlorophenyl)-1H-imidazol-4-yl]cyclopropanecarboxylic acid hydrochloride] | 0.14 |
| NCCC[C@H]1C[C@]1(C(=O)O)c1cn(/C=C/c2ccccc2)cn1 (relative stereo) [Example 14, (1R*,2S*)-2-(3-Aminopropyl)-1-{1-[(E)-2-phenylvinyl]-1H-imidazol-4-yl}cyclopropanecarboxylic acid] | 0.099 |
| CC(C)(C)CCn1cnc([C@]2(C(=O)O)C[C@H]2CCCN)c1 [Example 27, (1S,2R)-2-(3-Aminopropyl)-1-[1-(3,3-dimethylbutyl)-1H-imidazol-4-yl]cyclopropanecarboxylic acid] | > 0.1 |
| NCCC[C@H]1C[C@]1(C(=O)O)c1cn(-c2cc3ccccc3cn2)cn1 (relative stereo) [Example 46, (1R*,2S*)-2-(3-Aminopropyl)-1-(1-isoquinolin-3-yl-1H-imidazol-4-yl)cyclopropanecarboxylic acid] | 0.016 |

same assay, conditions: TAFIa IC50

| SMILES | IC50 [µM] |
| --- | --- |
| CC(C)(C)CCn1cnc(C2(C(=O)O)CC2CCCN)c1 (single isomer, unassigned) [Example 1, (1R*,2S*)-2-(3-Aminopropyl)-1-[1-(3,3-dimethylbutyl)-1H-imidazol-4-yl]cyclopropanecarboxylic acid] | 0.0087 |
